Assay results from patent EP4617271A1, “PROTEOLYTIC CHIMERAS FOR THE TREATMENT OF A CANCER RELATED TO CERT” (Consejo Superior De Investigaciones Científicas - CSIC, priority 2024, dated 2025).

Assays:
CERT = molecular target: T1, CERT (Homo sapiens, UniProt Q9Y5P4); experiment: Degradation of CERT in cultured human breast cancer cells (SDS-PAGE and immunoblot); type: cell-based; details: for degradation of CERT / levels of CERT in cells: 24 h; for degradation of CERT: immunoblot vs DMSO
T1 construct: endogenous in cells; host or cells: MDA-MB-231, MDA-MB-453 (WT and lapatinib-resistant), BT-474 (WT and lapatinib-resistant)
T1 sequence (Q9Y5P4 1-624): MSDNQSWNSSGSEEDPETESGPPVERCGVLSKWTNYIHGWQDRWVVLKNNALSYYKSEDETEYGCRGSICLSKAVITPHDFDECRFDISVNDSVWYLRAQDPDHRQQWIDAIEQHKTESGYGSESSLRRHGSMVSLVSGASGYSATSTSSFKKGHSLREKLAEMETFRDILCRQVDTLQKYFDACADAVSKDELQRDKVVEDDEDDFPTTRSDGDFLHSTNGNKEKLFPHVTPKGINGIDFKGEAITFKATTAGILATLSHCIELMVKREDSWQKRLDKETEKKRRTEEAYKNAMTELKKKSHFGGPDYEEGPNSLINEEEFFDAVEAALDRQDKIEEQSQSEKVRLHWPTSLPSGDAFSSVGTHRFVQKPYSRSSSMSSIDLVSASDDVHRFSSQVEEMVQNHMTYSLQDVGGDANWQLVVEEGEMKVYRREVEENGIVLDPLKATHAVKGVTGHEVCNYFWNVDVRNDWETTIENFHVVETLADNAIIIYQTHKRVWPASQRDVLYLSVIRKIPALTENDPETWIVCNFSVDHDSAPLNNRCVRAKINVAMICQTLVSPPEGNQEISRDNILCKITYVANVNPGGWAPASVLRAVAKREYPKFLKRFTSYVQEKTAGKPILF
Protocol: (§1) MDA-MB-231 cells were grown in DMEM media (Sigma) supplemented with 10% fetal bovine serum (FBS) (Sigma), 2 mM L-glutamine (Thermo Fisher) and 100 U/mL penicillin/ 100 ug/mL streptomycin (Thermo Fisher). MDA-MB-453 cells were grown in DMEM/F12 media (Gibco) supplemented with 10% fetal bovine serum (FBS) (Sigma), 2 mM L-glutamine (Thermo Fisher), 2.5 ug/mL amphotericin B and 100 U/mL penicillin/ 100 ug/mL streptomycin (Thermo Fisher). BT-474 cells were grown in DMEM/F12 media (Gibco) supplemented with 10% fetal bovine serum (FBS) (Sigma), 2 mM L-glutamine (Thermo Fisher), 10 ug/mL insulin, 2.5 ug/mL amphotericin B and 100 U/mL penicillin/ 100 ug/mL streptomycin (Thermo Fisher).
Then, medium was removed and cells were washed with PBS, trypsinized and the pellets were disrupted by probe sonication in a 0.25 M solution of Saccharose. An aliquot was used for protein quantification and the same amount of protein per treatment was treated with laemli buffer (95 °C/5 min). The protein extracts were analyzed by SDS-PAGE electrophoresis followed by immunoblot using the following antibodies: CERT1, Abcam Ab72536; USP14, Cell signaling CS-11931; Actin, Abcam Ab5694.
Chimeras were tested in different types of breast cancer cell lines: • MDA-MB-231, lacking the estrogen receptor (ER), progesterone receptor (PR) and human epidermal growth factor receptor-2 (HER2).

BT-474/WT cells = experiment: Cell viability (MTT), sensitization to lapatinib, BT-474/WT; type: cell-based, human; details: 24 h; for sensitization to Lapatinib treatments: Protac 20 µM, lapatinib 0.63-30 µM; for CC50 vehicle /CC50 Protac ratio: lapatinib CC50 without vs with Protac 20 µM
Protocol: as §1
(§2) For cell proliferation assays, cells were plated at a density of 10,000 cells/well in a 96-well plate. […] MTT reagent was added to cell culture media. After 3 h incubation, culture medium was replaced by DMSO. MTT formazan crystals were solubilized in DMSO using a plate agitator for 30 min prior to reading absorbance at 570 nm with a SYNERGY H1 microplate reader (BioTek

BT-474/Lap cells = experiment: Cell viability (MTT), sensitization to lapatinib, BT-474/Lap; type: cell-based, human; details: 24 h; for sensitization to Lapatinib treatments: Protac 20 µM, lapatinib 0.63-30 µM, shift of dose response curve vs vehicle; for CC50 vehicle /CC50 Protac ratio: lapatinib CC50 without vs with Protac 20 µM
Protocol: as §1, §2

MDA-MB-453/WT cells = experiment: Cell viability (MTT), sensitization to lapatinib, MDA-MB-453/WT; type: cell-based, human; details: 24 h; for sensitization to Lapatinib treatments: Protac 10 µM, lapatinib 3-50 µM, shift of dose response curve vs vehicle; for change in viability: lapatinib 10 µM in the presence of Protac 10 µM; for CC50 vehicle /CC50 Protac ratio: lapatinib CC50 without vs with Protac 10 µM
Protocol: as §1, §2

MDA-MB-453/Lap cells = experiment: Cell viability (MTT), sensitization to lapatinib, MDA-MB-453/Lap; type: cell-based, human; details: 24 h; for sensitization to Lapatinib treatments: Protac 10 µM, lapatinib 3-50 µM, shift of dose response curve vs vehicle; for change in viability: lapatinib 10 µM in the presence of Protac 10 µM; for CC50 vehicle /CC50 Protac ratio: lapatinib CC50 without vs with Protac 10 µM
Protocol: as §1, §2

[1] = BT-474 (WT) cells, 10 µM, 20 µM per Figure 1 legend
[2] = BT-474/Lap (lapatinib resistant) cells, 1, 5, 10, 20, 30 and 40 µM, immunoblot vs DMSO (Figure 6)
[3] = MDA-MB-231 cells, 10 µM, time course 2, 4, 6, 8, 16 and 24 h
[4] = MDA-MB-453/Lap (lapatinib resistant) cells, 1, 5, 10, 20, 30 and 40 µM, immunoblot vs DMSO (Figure 4)

| SMILES | degradation of CERT (CERT; [1]) | levels of CERT in cells (CERT; [2]) | degradation of CERT (CERT; MDA-MB-231 cells, 10 µM) | time of CERT degradation effect (CERT; [3]) | time of maximum degradation (CERT; [3]) | degradation of CERT (CERT; MDA-MB-453 (WT) cells, 10 µM) | levels of CERT in cells (CERT; [4]) | sensitization to Lapatinib treatments (BT-474/WT cells) | CC50 vehicle /CC50 Protac ratio (BT-474/WT cells) | sensitization to Lapatinib treatments (BT-474/Lap cells) | CC50 vehicle /CC50 Protac ratio (BT-474/Lap cells) | sensitization to Lapatinib treatments (MDA-MB-453/WT cells) | change in viability (MDA-MB-453/WT cells) | CC50 vehicle /CC50 Protac ratio (MDA-MB-453/WT cells) | sensitization to Lapatinib treatments (MDA-MB-453/Lap cells) | change in viability (MDA-MB-453/Lap cells) | CC50 vehicle /CC50 Protac ratio (MDA-MB-453/Lap cells) |
| --- | --- | --- | --- | --- | --- | --- | --- | --- | --- | --- | --- | --- | --- | --- | --- | --- | --- |
| Cc1cc(C(=O)N2CCC(COC(=O)NCCOCCOCCOCCn3cc(CCCCCCCCC(=O)N[C@@H](CO)C[C@H](O)c4ccccc4)nn3)CC2)c(C)n1-c1ccc(F)cc1 [RBM3-368] | induced the degradation of CERT | treatments have reduced the levels of CERT in cells | induced the degradation of CERT | 16 to 24 h | 24 h | induced the degradation of CERT | treatments have reduced the levels of CERT in cells | – | – | – | – | – | – | – | – | – | – |
| Cc1cc(C(=O)N2CCC(COC(=O)NCCOCCOCCn3cc(CCCCCCCCC(=O)N[C@@H](CO)C[C@H](O)c4ccccc4)nn3)CC2)c(C)n1-c1ccc(F)cc1 [RBM3-386, (1-(1-(4-Fluorophenyl)-2,5-dimethyl-1H-pyrrole-3-carbonyl)piperidin-4-yl)methyl (2-(2-(2-(4-(9-(((2R,4S)-1,4-dihydroxy-4-phenylbutan-2-yl)amino)-9-oxononyl)-1H-1,2,3-triazol-1-yl)ethoxy)ethoxy)ethyl) carbamate] | induced the degradation of CERT | treatments have reduced the levels of CERT in cells | induced the degradation of CERT | – | – | induced the degradation of CERT | treatments have reduced the levels of CERT in cells | – | – | – | – | – | – | – | – | – | – |
| Cc1cc(C(=O)N2CCC(Cn3cc(CCCCCCCCC(=O)N[C@@H](CO)C[C@H](O)c4ccccc4)nn3)CC2)c(C)n1-c1ccc(F)cc1 [RBM3-395, N-((2R,4S)-1,4-Dihydroxy-4-phenylbutan-2-yl)-9-(1-((1-(1-(4-fluorophenyl)-2,5-dimethyl-1H-pyrrole-3-carbonyl)piperidin-4-yl)methyl)-1H-1,2,3-triazol-4-yl)nonanamide] | induced the degradation of CERT | treatments have reduced the levels of CERT in cells | induced the degradation of CERT | – | – | induced the degradation of CERT | treatments have reduced the levels of CERT in cells | sensitized cells to lapatinib treatments | 6.22 | potent sensitization | 5.23 | Sensitization was also observed, yet mildly | -38% | 2.27 | potent sensitization | -38% | 2.05 |
| Cc1cc(C(=O)N2CCC(COC(=O)NCCOCCn3cc(CCCCCCCCC(=O)N[C@@H](CO)C[C@H](O)c4ccccc4)nn3)CC2)c(C)n1-c1ccc(F)cc1 [RBM3-413, (1-(1-(4-Fluorophenyl)-2,5-dimethyl-1H-pyrrole-3-carbonyl)piperidin-4-yl)methyl (2-(2-(4-(9-(((2R,4S)-1,4-dihydroxy-4-phenylbutan-2-yl)amino)-9-oxononyl)-1H-1,2,3-triazol-1-yl)ethoxy)ethyl)carbamate] | induced the degradation of CERT | treatments have reduced the levels of CERT in cells | induced the degradation of CERT | – | – | induced the degradation of CERT | treatments have reduced the levels of CERT in cells | sensitized cells to lapatinib treatments | 3.84 | potent sensitization | 5.56 | Sensitization was also observed, yet mildly | -38% | 1.98 | potent sensitization | -38% | 2.33 |
| Cc1cc(C(=O)N2CCC(COC(=O)NCCOCCOCCOCCOCCOCCn3cc(CCCCCCCCC(=O)N[C@@H](CO)C[C@H](O)c4ccccc4)nn3)CC2)c(C)n1-c1ccc(F)cc1 [RBM3-419, (1-(1-(4-Fluorophenyl)-2,5-dimethyl-1H-pyrrole-3-carbonyl)piperidin-4-yl)methyl (17-(4-(9-(((2R,4S)-1,4-dihydroxy-4-phenylbutan-2-yl)amino)-9-oxononyl)-1H-1,2,3-triazol-1-yl)-3,6,9,12,15-pentaoxaheptadecyl)carbamate] | induced the degradation of CERT | treatments have reduced the levels of CERT in cells | induced the degradation of CERT | – | – | induced the degradation of CERT | treatments have reduced the levels of CERT in cells | – | – | – | – | – | – | – | – | – | – |
